Test results as given in patent publication US20260048093A1, “COMBINATION THERAPY OF MIXED HERBAL EXTRACT AND DOCETAXEL FOR PREVENTING OR TREATING CANCER” (JAEIN R&P INC., priority 2022, published 2026).

Experiments:
[1] = system: MDA-MB-231 (TNBC, highly metastatic); test: MTT assay, viability and combination index in MDA-MB-231 cells; assay type: cell-based; details: 24 hours, SH003 100, 300, 500 μg/mL, DTX 1, 10, 100, 1000 nM
Description: (§3) Thereafter, a 3-(4,5-Dimethylthiazol-2-yl)-2,5-diphenyltetrazolium bromide (MTT) reagent was treated in each cell, the cells were further incubated for 4 hours, and then a supernatant was removed and 100 μL of dimethyl sulfoxide (DMSO) was added. Finally, absorbance was measured at a wavelength of 590 nm and the absorbance value was compared with a control group which was not treated with any material.
Fa indicates the inhibition rate.

BT-20 tumor xenograft = BT-20 tumor xenograft mouse model; assay type: in vivo, BALB/c nude mice; details: BT-20 xenograft mice
Description: The effect of the combined administration of the mixed extract of the present invention and docetaxel was investigated in an animal model. All animal studies were approved by Kyung Hee University-Institutional Animal Care & Use Committee (KHU-IACUC). Five-week-old female BALB/c nude mice were purchased from Nara Biotech (Seoul, Republic of Korea). The mice were allowed free access to food and water and were housed in appropriate isolation cages at room temperature (22-25° C.) under a 12-h light/12-h dark cycle in the absence of pathogens. In order to establish a tumor xenograft mouse model, BT-20 cell suspension (1×10^7 cells) in 100 μL PBS was subcutaneously inoculated into the right flank of the mice. The mice were divided into four groups: control group (n=3), SH003 (n=4), DTX (n=4), and SH003+DTX (n=5). When the tumor volume reached 100 mm^3, the drug was injected. DTX was administered intravenously via the tail vein once a week at 15.277 mg/kg, while DMSO was administered to the control or SH003 single-administration group. SH003 was administered orally at 557.569 mg/kg three times a week, while saline was administered to the control or DTX single-administration group. The body weight was measured three times a week, and tumor volume was analyzed daily for 17 days.
Subsequently, the mice were euthanized and the tumors were isolated. […]

[2] = system: H460 non-small cell lung cancer cell line; test: WST colorimetric assay, viability and combination index in H460 cells; assay type: cell-based; details: 24, 48 and 72 hours
Description: Specifically, a total of 10^5 cells per well were seeded in a 6-well plate before treatment. […] After treatment, the cells were incubated with WST for 1 hour, and then the absorbance was measured at 450 nm using an ELISA reader (Molecular Devices, Palo Alto, CA, USA).
Fa indicates the inhibition rate.

[3] = system: BT-20 (TNBC, triple-negative breast cancer, non-invasive); test: MTT assay, viability and combination index in BT-20 cells; assay type: cell-based; details: 24 hours, SH003 100, 300, 500 μg/mL, DTX 1, 10, 100, 1000 nM
Description: as §3
Fa indicates the inhibition rate.

H460 tumor xenograft = H460 tumor xenograft mouse model; assay type: in vivo, Balb/c nude mice; details: H460 xenograft mice
Description: The effect of the combined administration of the mixed extract of the present invention and docetaxel was investigated in an animal model. All procedures of animal experimentation, including maintenance and euthanasia, were approved by Kyung Hee University Institutional Animal Care and Use Committee (KHU-IACUC-KHSASP-21-211). Five-week-old male Balb/c nude mice were purchased from Nara Biotech (Seoul, Republic of Korea) and acclimated to a 12-h light/dark cycle at 22-23° C. and 40-60% humidity. The mice were divided into four groups: control (n=3), SH003 administration (n=4), DTX administration (n=4), and combined administration (n=5). In order to establish a tumor xenograft mouse model, H460 cell suspension (1×10^7 cells) in 100 μL PBS was subcutaneously inoculated into the right flank of the mice. Thereafter, 200 μL of SH003 (557.569 mg/kg) was administered orally three times a week, and 50 μL DTX (15.277 mg/kg) was administered intravenously via the tail vein once a week for 3 weeks. Saline and DMSO were used as vehicles. The body weight was measured three times a week, and tumor volume was analyzed daily. On day 21, the mice were sacrificed using carbon dioxide and cervical dislocation was performed. Tumor tissues were isolated after euthanasia. […]

[4] = system: gastric cancer cell line AGS; test: Cell survival rate and combination index in AGS cells; assay type: cell-based
H460 cells = test: Annexin V/7-AAD apoptosis in H460 cells; assay type: cell-based; details: 24 hours
Description: (§1) In order to investigate the effect of increasing apoptosis by combined administration of the mixed extract of the present invention and docetaxel, Annexin V/7-AAD double staining was used for analysis.
(§2) Specifically, H460 and A549 cells were stained with Annexin V and then stained with 7-AAD in the dark for 15 minutes at room temperature, and then the stained cells were detected by FACSCalibur (BD Biosciences, San Jose, CA, USA), and the apoptotic cells were analyzed using CellQuest Pro version 5.2 (BD Biosciences, San Jose, CA, USA) software. The results are illustrated in FIG. 3.

[5] = system: A549 non-small cell lung cancer cell line; test: WST colorimetric assay, viability in A549 cells; assay type: cell-based; details: 24, 48 and 72 hours
Description: Specifically, a total of 10^5 cells per well were seeded in a 6-well plate before treatment. After 24 hours, the cells were treated with SH003 (100, 300, and 500 μg/mL), DTX (1, 10, 100, and 1000 nM), or a combination thereof for 24, 48, and 72 hours. […] After treatment, the cells were incubated with WST for 1 hour, and then the absorbance was measured at 450 nm using an ELISA reader (Molecular Devices, Palo Alto, CA, USA).

A549 cells = test: Annexin V/7-AAD apoptosis in A549 cells; assay type: cell-based; details: 24 hours
Description: as §1, §2

CC(=O)O[C@@]12CO[C@@H]1C[C@H](O)[C@@]1(C)C(=O)[C@H](O)C3=C(C)[C@@H](OC(=O)[C@H](O)[C@@H](NC(=O)OC(C)(C)C)c4ccccc4)C[C@@](O)([C@@H](OC(=O)c4ccccc4)[C@H]21)C3(C)C [DTX, Docetaxel]
viability of MDA-MB-231 cells [1]: decreased the viability | body weight (BT-20 tumor xenograft): did not have an effect | H460 cell growth [2]: inhibited H460 cell growth in a dose-dependent manner | viability of BT-20 cells [3]: decreased the viability | body weight (H460 tumor xenograft): did not have an effect | AGS cell survival rate [4]: decreased in a concentration-dependent manner | apoptosis compared to the control group (in words) (H460 cells): did not significantly affect | A549 cell growth [5]: inhibited A549 cell growth in a dose-dependent manner | apoptosis compared to the control group (in words) (A549 cells): did not significantly affect
